We go through 15 molecules from patent publication US12157750B2, “Bright targetable red CA2+ indicators” (HOWARD HUGHES MEDICAL INSTITUTE, priority 2019, dated 2024).

“And” between values parts separate entries of the source, which are not always exact repeats. Identical values can stand only once. Like-named read-outs stand apart in the source and are kept apart here.

Series [1] concerns the target HaloTag protein (Rhodococcus rhodochrous, UniProt P0A3G2, A155T/A167V/A172T/A224E/C128F/C176G/D78G/E160K/E257K/H272N/K175M/K195N/L47V/L88M/N227D/P291S/S2A/S58T/T264A/Y273L/Y87F). Briefly: Calcium titrations in the presence or absence of excess HaloTag protein. The class given is biochemical. To be noted: in vitro; saturating [Ca2+]. The protocol: (§1) Example 15: UV-Vis and Fluorescence Spectroscopy, Kd Determination. UV-Vis and fluorescence spectra were measured in a commercial EGTA buffer system (Invitrogen) following the associated protocol. […] For calcium titrations of the HaloTag ligands in the presence of HaloTag protein, the dye was incubated with 1.5 eq of purified HaloTag protein ([…] solution in 75 mM NaCl, 50 mM Tris-HCl, pH 7.4) for 1 h at room temperature. Calcium titrations were then performed using the commercial EGTA buffer system to which 0.1 mg·mL^−1 CHAPS was added. All the calcium titrations were performed in duplicate.

The nature of series [2]: Quantum yield determination. The class given is physicochemical. To be noted: fluorescence quantum yield at saturating Ca2+. The protocol:
Example 16: Quantum Yield Determination. Absolute quantum yields (Φ) were measured using a Quantaurus-QY spectrometer (model C11374) from Hamamatsu. This instrument uses an integrating sphere to determine photons absorbed and emitted by a sample. Measurements were carried out using dilute samples (A<0.1) and self-absorption corrections were performed using the instrument software.^27

Series [3] can be described thus: UV-Vis and fluorescence spectroscopy. The class given is physicochemical. As to conditions: in vitro; for λmax: first value of λmax/λem; for λem: second value of λmax/λem. The protocol:
(§2) All measurements were taken at ambient temperature (23±2° C.). […] Spectroscopy was performed using 1-cm path length quartz cuvettes (Starna). Absorption measurements were recorded on a Cary Model 100 spectrometer (Varian). Fluorescence measurements spectra were recorded on a Cary Eclipse fluorometer (Varian). Images were processed in ImageJ/Fiji. Data was analyzed and graphs were plotted using Prism (GraphPad). Movie renderings were done using Imaris (Bitplane)
as §1

Series [4] in a line: Calcium titrations in EGTA buffer system (ΔF/F0, Kd determination). As to conditions: for Kd: in vitro Ca2+ binding; for ΔF/F0: Ca2+-dependent change in fluorescence over baseline. The class given is binding. The protocol:
as §2, §1

For series [5], the system named is Primary rat hippocampal neurons. Briefly: Calcium indicators characterization in primary neuron culture (evoked action potentials). As to conditions: for ΔF/F0, single AP: 1 AP. Type of series: cell-based.
Protocol: Synaptic blockers (10 μM CNQX, 10 μM CPP, 10 μM GABAZINE, and 1 mM MCPG) were added to block ionotropic glutamate, GABA, and metabotropic glutamate receptors.^21 Each measurement was performed on 3 to 5 wells replicates.
Wide-field imaging was performed on an inverted Nikon Eclipse Ti2 microscope equipped with a SPECTRA X light engine (Lumencore), 20× objective (NA=0.75, Nikon), and imaged onto a scientific CMOS camera (Hamamatsu ORCA-Flash 4.0). […] A quad bandpass filter (set number: 89000, Chroma) was used along with the appropriate color band from the SPECTRA X light source to image 13AM.
For series [6] the following is noted: known indicator, literature value (ref. 15); cited from earlier work.
Series [7] has as its system primary cilium in hRPE1 cells expressing 5HT6-HaloTag. To be noted: Ca2+ uncaging with 405 nm light.
Protocol: Tet-on 5HT6-HaloTag RPE cells were plated in 8-well Labtek II chambers (Invitrogen) in 10% FBS DMEM:F12 media. The next day, the cells were serum deprived with 0% FBS DMEM:F12 medium with 100 ng/ml doxycycline to induce 5HT6-HaloTag expression. After 24 h of serum deprivation and doxycycline induction, cells were labeled with 1 μM 13AM overnight. After rinsing in DMEM:F12, the cells were loaded with 4 μM NP-EGTA, AM (ThermoFisher N6803) for 1 h. The medium was then replaced by DMEM Fluorobrite (ThermoFisher) for imaging in a 37° C., 5% CO2 chamber on an inverted Zeiss 880 with Airyscan. For each single cilium, 405 nm laser light (100%, 15 mW, 3s) uncaged free Ca^2+ from NP-EGTA in a 50-70 μm^2 area. Airyscan images were acquired at 0.5-0.8 s/stack for a total of 100 stacks (50-80 s) with 633 laser lines (13AM). Calcium uncaging was performed at the 50th stack. Change in intensity values were calculated in ImageJ using a maximum intensity projection series.
For series [8], the system named is cultured neurons expressing NES-HaloTag-GFP. As to conditions: cells expressing NES-HaloTag-GFP; same imaging conditions; normalized to GFP.
Protocol: Primary rat hippocampal neurons were prepared as described previously and infected with AAV viruses.^1 Stock solutions of the different calcium indicators were prepared at C=1 mM in DMSO containing 20% Pluronic F-127. Cultured neurons were incubated with the cell-permeant sensors at 37° C. for 30 min (7AM and Calcium Orange-AM) or 2 h (12AM and 13AM) before washing twice with imaging buffer containing the following: 145 mM NaCl, 2.5 mM KCl, 10 mM glucose, 10 mM HEPES, pH 7.4, 2 mM CaCl2), 1 mM MgCl2. Synaptic blockers (10 μM CNQX, 10 μM CPP, 10 μM GABAZINE, and 1 mM MCPG) were added to block ionotropic glutamate, GABA, and metabotropic glutamate receptors.^21 Each measurement was performed on 3 to 5 wells replicates.
Wide-field imaging was performed on an inverted Nikon Eclipse Ti2 microscope equipped with a SPECTRA X light engine (Lumencore), 20× objective (NA=0.75, Nikon), and imaged onto a scientific CMOS camera (Hamamatsu ORCA-Flash 4.0). […]
Brightness comparison: The brightness of 12AM, jRGECO1a and jRCaMP1b in neurons were compared under the same illumination conditions. The fluorescence emission in each field of view was background subtracted and normalized by the emission of the fused EGFP to account for differences in expression levels among neurons.
The conditions of series [9]: known indicator, literature value (ref. 15); saturating Ca2+; cited from earlier work.
For series [10] the following is noted: known indicator, cited from earlier work.
Where [11] appears, read: cultured hippocampal neurons loaded with AM ester.

Sequence of HaloTag protein (P0A3G2 other isoform, or with tags, fused parts or gaps with the stated changes): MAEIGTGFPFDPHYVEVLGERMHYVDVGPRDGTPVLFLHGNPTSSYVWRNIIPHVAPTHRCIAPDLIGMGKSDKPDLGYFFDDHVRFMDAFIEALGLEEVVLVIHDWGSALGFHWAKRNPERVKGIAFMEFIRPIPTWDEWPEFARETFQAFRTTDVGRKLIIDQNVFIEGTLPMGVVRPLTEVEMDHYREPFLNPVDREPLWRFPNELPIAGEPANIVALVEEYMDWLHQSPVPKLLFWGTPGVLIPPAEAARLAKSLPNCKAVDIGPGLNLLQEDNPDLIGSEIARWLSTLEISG

`C[Si]1(C)c2cc(N3CCC3)ccc2C2(OC(=O)c3ccc(C(=O)NCCOCCOCCCCCCCl)cc32)c2ccc(N3CC(C(=O)Nc4ccc(N(CC(=O)O)CC(=O)O)c(OCCOc5ccccc5N(CC(=O)O)CC(=O)O)c4)C3)cc21` (stereo not drawn) [Compound 13, 3″-BAPTA-JF646-HaloTag ligand]: in series [1], the “increase in fluorescence upon binding to HaloTag” value worked out at 2.4 fold. The ϕsat in series [2] stood at 0.58. In series [3], this molecule registered a λmax of 646 nm and a λem of 666 nm. The Kd (as a rule, the equilibrium constant for the complex coming apart) in series [4] stood at 280 nM. Besides, the ΔF/F0 in series [4] (in vitro) came to 7.8.
“3″-BAPTA-JF549 tetra-acetoxymethyl ester [Compound 7AM]”: in series [5] (setting [11]), the “saturating number of APs” value was found to be 40 APs and the “ΔF/F0, single AP” value worked out at 0.20. For the same molecule, in [5] (cultured hippocampal neurons loaded with AM ester, at saturation), the “maximal ΔF/F0” value is 0.80. For the same molecule, in [5] (cultured neurons), the “brightness compared to cells loaded with 2AM” value came to 10 × and the “ΔF/F0 compared to cells loaded with 2AM” value stood at 10 ×.
As to Oregon Green BAPTA-1 [Compound 1], in [6], the Kd was 170 nM and the ΔF/F0 is recorded as 14.
For “3″-BAPTA-JF646-HaloTag ligand tetra acetoxymethyl ester [Compound 13AM]”, the “ΔF/F0, single AP” value in series [5] (cultured hippocampal neurons expressing NES-HaloTag-GFP) was 0.11. Further, the “ΔF/F0 across the entire cilium” value in series [7] came out at 0.60.
In turn, “3″-BAPTA-JF549-HaloTag ligand [Compound 12]” displayed a ϕsat in series [2] of 0.78. Further, in series [3], the λmax was 553 nm and the λem came out at 573 nm. Further, the dissociation constant Kd in series [4] is 130 nM. Also, the ΔF/F0 in series [4] (in vitro) was 9.5.
As for `O=C(O)CN(CC(=O)O)c1ccccc1OCCOc1cc(NC(=O)c2ccc(C(=O)[O-])c(-c3c4ccc(=[N+]5CCC5)cc-4oc4cc(N5CCC5)ccc34)c2)ccc1N(CC(=O)O)CC(=O)O` [Compound 4, 6-BAPTA-JF549], the ϕsat in series [2] is given as 0.78. Also, in [3], the λmax worked out at 555 nm and the λem is on record as 576 nm. In [4] (in vitro), the “improvement in ΔF/F0 compared to 3” value is listed as 2 fold and the ΔF/F0 was 4.6. For the same molecule, the Kd in [4] turned out to be 350 nM.
In turn, `O=C(O)CN(CC(=O)O)c1ccc(NC(=O)C2CN(c3ccc4c(-c5ccccc5C(=O)O)c5ccc(=[N+]6CCC6)cc-5oc4c3)C2)cc1OCCOc1cc(NC(=O)C2C[N+](=c3ccc4c(-c5ccccc5C(=O)O)c5ccc(N6CCC6)cc5oc-4c3)C2)ccc1N(CC(=O)O)CC(=O)O` (stereo not drawn) [Compound 9, 3″-BAPTA-bisJF549] returned a ϕsat in series [2] of 0.20. In addition, in series [3], the λmax is listed as 512-549 nm and the λem was 570 nm. Moreover, in [4] (in vitro), the ΔF/F0 is recorded as 75.0.
Turning to `CN(C(=O)c1cccc(C(=O)O)c1-c1c2ccc(=[N+]3CCC3)cc-2oc2cc(N3CCC3)ccc12)c1ccc(N(CC(=O)O)CC(=O)O)c(OCCOc2ccccc2N(CC(=O)O)CC(=O)O)c1` [Compound 5, 7-MeBAPTA-JF549], in series [2], the ϕsat stood at 0.18. In series [3], this molecule returned a λmax of 565 nm and a λem of 583 nm. Also, the Kd in series [4] was 570 nM. For the same molecule, the ΔF/F0 in series [4] (in vitro) is 14.
In series [2], `O=C(O)CN(CC(=O)O)c1ccccc1OCCOc1cc(NC(=O)C2C[N+](=c3ccc4c(-c5cc(C(=O)NCCOCCOCCCCCCCl)ccc5C(=O)[O-])c5ccc(N6CCC6)cc5oc-4c3)C2)ccc1N(CC(=O)O)CC(=O)O` (stereo not drawn) [Compound 12, 3″-BAPTA-JF549-HaloTag ligand] gave a ϕsat of 0.74. In series [3], this molecule came in with a λmax of 550 nm and a λem of 574 nm. The dissociation constant (Kd) in series [4] turned out to be 290 nM. For the same molecule, the ΔF/F0 in series [4] (in vitro) is 14 and 13.8.
Turning to `O=C(O)CN(CC(=O)O)c1ccccc1OCCOc1cc(NC(=O)C2CN(c3ccc4c(-c5ccccc5C(=O)[O-])c5ccc(=[N+]6CC(C(=O)Nc7ccc(N(CC(=O)O)CC(=O)O)c(OCCOc8ccccc8N(CC(=O)O)CC(=O)O)c7)C6)cc-5oc4c3)C2)ccc1N(CC(=O)O)CC(=O)O` (stereo not drawn) [Compound 8, 3″,3″′-bisBAPTA-JF549], the ϕsat in series [2] is reported as 0.70. In series [3], this molecule came in with a λmax of 543 nm and a λem of 566 nm. Also, in [4], the Kd came to 730 nM. The ΔF/F0 in series [4] (in vitro) worked out at 47.0.
Taken in the same sequence, the figures for `O=C(O)CN(CC(=O)O)c1ccccc1OCCOc1cc(NC(=O)c2ccc(-c3c4ccc(=[N+]5CCC5)cc-4oc4cc(N5CCC5)ccc34)c(C(=O)[O-])c2)ccc1N(CC(=O)O)CC(=O)O` [Compound 3, 5-BAPTA-JF549] were 0.69, 554 nm, 579 nm, 190 nM and 2.3.
Consider “3″-BAPTA-JF549-HaloTag ligand tetra acetoxymethyl ester [Compound 12AM]”, for which, in series [8], the “baseline fluorescence, brighter than jRCaMP1b” value was 3.6 fold and the “baseline fluorescence, brighter than jRGECO1a” value is reported as 7.8 fold.
In series [2], `O=C(O)CN(CC(=O)O)c1ccccc1OCCOc1cc(NC(=O)C2CC/[N+]2=c2/ccc3c(-c4ccccc4C(=O)[O-])c4ccc(N5CCC5)cc4oc-3c2)ccc1N(CC(=O)O)CC(=O)O` (stereo not drawn) [Compound 6, 2″-BAPTA-JF549] showed a ϕsat of 0.45. In series [3], this molecule displayed a λmax of 542 nm and a λem of 566 nm. In addition, the Kd in series [4] was determined as 270 nM. In addition, the ΔF/F0 in [4] (in vitro) turned out to be 27.7.
With `O=C(O)CN(CC(=O)O)c1ccccc1OCCOc1cc(NC(=O)C2C[N+](=c3ccc4c(-c5ccccc5C(=O)[O-])c5ccc(N6CCC6)cc5oc-4c3)C2)ccc1N(CC(=O)O)CC(=O)O` (stereo not drawn) [Compound 7, 3″-BAPTA-JF549], the ϕsat in series [2] is listed as 0.75. Moreover, in series [3], the “red-shift of λex and λem relative to compound 1” value is recorded as 50 nm; the λmax amounted to 546 nm; the λem was 569 nm. Moreover, the Kd in [4] is 310 nM. The ΔF/F0 in series [4] (in vitro) is recorded as 15.0.
As for Calcium Orange [Compound 2], in series [6], the Kd was 185 nM and the ΔF/F0 is 3. In series [9], the ϕsat was 0.33. Besides, in [10] (literature value (ref. 15)), the λem was 574 nm and the λmax was 549 nm. The “excitation maxima (λex)” value in [10] (literature value) is recorded as 549 nm.
